# Source: patent US8337899B2, “Solid pharmaceutical dispersions with enhanced bioavailability” (Bend Research, Inc., priority 1997, dated 2012)
# Columns and labels:
# [1] = solid amorphous dispersions in HPMCAS, pH 4.0; cited from earlier work
# [2] = syringe/filter in vitro dissolution test in MFD solution; format: physicochemical; conditions: for C90: concentration at 90 minutes; for MSSC (maximum supersaturated concentration): syringe/filter method, MFD solution pH 6.5, 37° C., 0.45 μm filtrate
# Description: This example discloses an in vitro dissolution test termed the “syringe/filter” method. In this method the concentration of test compound in solution is determined as a function of time. Test solution is held in a syringe from which samples are expelled through a filter at pre-determined time points. In between expelling samples from the syringe, the syringe is rotated (50 rpm) on a wheel held in an oven at 37° C.
# A 20 GA hypodermic needle was attached to the syringe, and 10 mL of a model-fasted duodenal (MFD) solution at 37° C. was drawn into the syringe.
# The MFD solution was prepared using the following procedure. […] This mixture was then mixed thoroughly by vortex mixer (Fisher Vortex Genie), and the solvent removed rapidly by roto-evaporator (Rotavapor RE121, Büchi), leaving a dry white surface dispersion coating the flask. The surface dispersion was then reconstituted with 200 mL of the 37° C. phosphate buffered saline.
# The needle was then replaced with a 13 mm, 0.45 μm polyvinylidine diflouride syringe filter (Scientific Resources, Titan), and the syringe was vigorously shaken for 30 sec. After 30 sec, 6 drops of the solution was expelled and a subsequent 13 drop sample was delivered to a test tube. After expelling the sample, the syringe plunger was drawn back to pull an air bubble into the syringe to aid in subsequent mixing and the syringe placed back on a rotating wheel in a 37° C. oven. […] The remaining solution in the syringe was mixed by rotating on a wheel at 50 rpm in a 37° C. temperature-controlled box.
# [3] = centrifuge in vitro dissolution test in MFD solution; format: physicochemical; conditions: centrifuge method; for MSSC (maximum supersaturated concentration): MFD solution pH 6.5, 37° C., supernatant; for C90: concentration at 90 minutes; for C1200: concentration at 1200 minutes
# Description: This example discloses an in vitro dissolution test termed the “centrifuge” method. This method was used to test the dissolution of material made by essentially the same method as that described in Example 1 except that the concentration of Compound 1 was decreased by a factor of 2 to 66.5 mg such that the ratio of compound to polymer was 1:1. (see Example 7, Table I).
# In a 37° C. controlled temperature box, 1.8 mg of solid product from Example 1 was accurately weighed into an empty microcentrifuge tube (polypropylene, Sorenson Bioscience Inc.). The theoretical maximum concentration of compound in solution (e.g., if all compound dissolved) was 383 μgA/ml [1.8 mg dispersion (1000 μg/1 mg) (0.5 μg compound/μg dispersion) (0.764 compound assay)/1.8 ml=[…]]. This value is termed the theoretical maximum supersaturated concentration and is abbreviated Theoretical MSSC. 1.8 mL of a 37C phosphate buffered saline solution (8.2 mM NaCl, 1.1 mM Na2HPO4, 4.7 mM KH2PO4, pH 6.5, 290 mOsm/kg) containing 14.7 mM sodium taurocholic acid (Fluka) and 2.8 mM 1-palmitoyl-2-oleoyl-sn-glycero-3-phosphocholine (Avanti Polar Lipids) was added to the tube. The centrifuge tube was closed and a timer was started. The tube was then mixed continuously at the highest speed on a vortex mixer (Fisher Vortex Genie 2) for 60 seconds. The tube was transferred to a centrifuge (Marathon, Model Micro A) allowed to stand undisturbed for six minutes, then centrifuged at 13,000 G for 60 seconds. A 25 uL sample was removed from the solids-free supernatant in the centrifuge tube via pipette (Gilson Pipetman P-100) ten minutes after the timer was started. Solids in the centrifuge tube were resuspended by mixing the sample continuously on the vortex mixer for 30 seconds. The centrifuge tube was returned to the centrifuge and allowed to stand undisturbed until the next sample was taken. Each sample was centrifuged, sampled and resuspended as described previously. Each sample was diluted 1:1 with a solution containing 60/40 1.7 wt % ammonium ascorbate/acetonitrile, and the concentration of compound was determined by HPLC (Hewlett Packard 1090 HPLC, Phenomenex Ultracarb ODS 20 analytical column, absorbance measured at 215 nm with a diode array spectrophotometer). […] […] The maximum compound concentration observed, 125 μgA/ml, is termed the maximum supersaturated concentration of compound and is abbreviated MSSC.
# aqueous solubility = format: physicochemical; conditions: pH 6.5
smiles,measurement,setting,value
"CC[C@H]1OC(=O)C[C@@H](O)[C@H](C)[C@@H](O[C@@H]2O[C@H](C)[C@@H](O[C@H]3C[C@@](C)(O)[C@@H](OC(=O)Cc4ccc(OC)cc4)[C@H](C)O3)[C@H](N(C)C)[C@H]2O)[C@@H](CC=O)C[C@@H](C)C(=O)/C=C/C(C)=C/[C@@H]1CO[C@@H]1O[C@H](C)[C@@H](O)[C@@H](OC)[C@H]1OC [MAT, 4″-0-(4-methoxyphenyl)acetyltylosin]",supersaturated concentration relative to crystalline MAT,[1],9 fold
"CON(C)C(=O)C(O)[C@H](Cc1ccccc1)NC(=O)c1cc2cc(Cl)ccc2[nH]1 (stereo in doubt) [Compound 1, [R—(R*,S*)]-5-chloro-N-[2-hydroxy-3-(methoxymethylamino)-3-oxo-1-(phenylmethyl)propyl]-1-H-indole-2-carboxamide]",equilibrium solubility,[2]; in the dissolution medium (MFD),9 μgA/ml
"O=C(N[C@@H](Cc1ccccc1)[C@@H](O)C(=O)N1C[C@@H](O)[C@@H](O)C1)c1cc2cc(Cl)ccc2[nH]1 (relative stereo) [Example C17, 1H-Indole-2-caboxamide, 5-chloro-N-[3-(3,4-dihydroxy-1-pyrrolidinyl)-2-hydroxy-3-oxo-1-(phenylmethnyl)propyl]-, [R—[R*,S*-(cis)]]-]",MSSC (maximum supersaturated concentration),[3],194 μgA/mL
same,C90,[3],158 μgA/mL
same,C1200,[3],194 μgA/mL
"Cc1ccc2c(c1)N(CC(=O)NC(C)(C)C)C(=O)C(NC(=O)Nc1cccc(Cl)c1)CC2c1ccccc1 (stereo not drawn) [N-tert-butyl-2-{3-[3-(3-chloro-phenyl)-unreido]-8-methyl-2-oxo-5-phenyl-2,3,4,5-tetrahydrobenxo[b]azepin-1-yl}-acetamide]",aqueous solubility,aqueous solubility,less than 3.0 μg/ml
"CON(C)C(=O)C(O)[C@H](Cc1ccccc1)NC(=O)c1cc2cc(Cl)ccc2[nH]1 (stereo in doubt) [Example C1, [R—(R*,S*)]-5-chloro-N-[2-hydroxy-3-(methoxymethylamino)-3-oxo-1-(phenylmethyl)propyl]-1-H-indole-2-carboxamide]",C90,"[2]; syringe/filter, MFD, 37° C.",10 μgA/mL
same,C180,"[2]; concentration at 180 minutes, syringe/filter, MFD, 37° C.",8.5 μgA/mL
same,C1200,"[2]; concentration at 1200 minutes, syringe/filter, MFD, 37° C.",9 μgA/mL
same,MSSC (maximum supersaturated concentration),[2],10 μgA/mL
"CCC(CC)Nc1cc(C)nc(Oc2c(C)cc(C)cc2C)c1C [Example C16, [3,6-dimethyl-2-(2,4,6-trimethyl-phenoxy)-pyridin-4-yl]-(1-ethyl-propyl)-amine]",MSSC (maximum supersaturated concentration),[3],22 μgA/mL
same,C90,[3],22 μgA/mL
same,C1200,[3],22 μgA/mL
"COC1=CC(=O)CC(C)C12Oc1c(Cl)c(OC)cc(OC)c1C2=O (stereo not drawn) [Example C11, 7-chloro-4,6-dimethoxy-courmaran-3-one-2-spiro-1′-(2′-methoxy-6′-methylcyclohex-2′en-4′-one)]",C60,"[2]; concentration at 60 minutes, syringe/filter, MFD, 37° C.",17 μgA/mL
same,C90,"[2]; syringe/filter, MFD, 37° C.",15 μgA/mL
same,MSSC (maximum supersaturated concentration),[2],18 μgA/mL
"O=C1NC(=O)C(c2ccccc2)(c2ccccc2)N1 [Example C14, 5,5-diphenylhydantoin]",C3,[3]; concentration at 3 minutes,14 μgA/mL
same,C10,[3]; concentration at 10 minutes,20 μgA/mL
same,C20,[3]; concentration at 20 minutes,28 μgA/mL
same,C40,[3]; concentration at 40 minutes,34 μgA/mL
same,C90,[3],50 μgA/mL
CCC(CC)Oc1cc(C)nc(Oc2c(C)cc(C)cc2C)c1C [Example C5],MSSC (maximum supersaturated concentration),[3],18 μgA/mL
same,C90,[3],18 μgA/mL
same,C1200,[3],13 μgA/mL
